Measured values: patent US20260265329A1, “POLYPEPTIDE AND DERIVATIVE THEREOF, COMPOSITION, AND USE THEREOF” (HANGZHOU SCIWIND BIOSCIENCES CO., LTD., priority 2023, published 2026)
Starred links: 1 amine or outer side, 2 acyl side, 3 side chain; linkers in the order of their positions; H or OH if unused. Non-standard residues stand in square brackets, D forms with d. Residues, ends and D or L forms follow the SMILES beside them. *: point of attachment. C20 diacid = O=C(O)CCCCCCCCCCCCCCCCCCC(=O)*; C18 diacid = O=C(O)CCCCCCCCCCCCCCCCC(=O)*; γGlu = O=C(O)[C@H](CCC(=O)[*:2])N[*:1]; βAsp = O=C(O)[C@H](CC(=O)[*:2])N[*:1]; Hyp = O=C(O)[C@@H]1C[C@@H](O)CN1; AEEA = NCCOCCOCC(=O)O; Inp = O=C(O)C1CCNCC1

Target: T1, human amylin receptors (Homo sapiens, UniProt O60896+P30988)
T1 construct: host or cells: CHO-K1/Ga15/AMY3 cells, further stably transfected with a CRE-luciferase plasmid
T1 sequence (P30988 25-474): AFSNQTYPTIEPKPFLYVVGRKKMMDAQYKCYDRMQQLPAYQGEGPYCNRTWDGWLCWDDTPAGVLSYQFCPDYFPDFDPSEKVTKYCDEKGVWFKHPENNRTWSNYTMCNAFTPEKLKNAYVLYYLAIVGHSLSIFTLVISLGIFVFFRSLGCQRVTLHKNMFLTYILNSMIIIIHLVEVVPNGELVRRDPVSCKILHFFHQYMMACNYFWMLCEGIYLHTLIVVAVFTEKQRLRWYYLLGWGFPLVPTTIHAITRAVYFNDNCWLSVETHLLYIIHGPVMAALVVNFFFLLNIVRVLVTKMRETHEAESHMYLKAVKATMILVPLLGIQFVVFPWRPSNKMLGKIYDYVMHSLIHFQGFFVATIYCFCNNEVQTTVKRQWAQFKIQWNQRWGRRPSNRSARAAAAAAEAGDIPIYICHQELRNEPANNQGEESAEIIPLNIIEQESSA
T1 sequence (O60896 24-148 partner): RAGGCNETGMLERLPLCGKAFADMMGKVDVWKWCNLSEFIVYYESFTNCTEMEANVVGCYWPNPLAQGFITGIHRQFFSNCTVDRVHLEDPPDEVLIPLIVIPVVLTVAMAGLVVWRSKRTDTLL
Test: Luciferase assay in stably transfected amylin receptor/CRE-luc CHO cell line
Type: cell-based
Conditions: for Relative activity: EC50 ratio of Cagrilintide to the compound, Cagrilintide 100%; for EC50: amylin receptor/CRE-luc CHO cells, 24 hours incubation, luminescence
Text: The objective of this assay is to test the potency of derivatives of polypeptides of the present application on human amylin receptors in vitro using a luciferase assay. Using the standard protocol, CHO-K1/Ga15/AMY3 cells (purchased from GenScript, with the calcitonin receptor and the receptor activity modifying peptide (RAMP) constructed already) were transfected with a plasmid containing a luciferase expression cassette driven by multiple copies of cAMP response elements (CREs). The cells were cultured in an F12 medium containing 200 μg/mL Zeocin, 2 μg/mL puromycin, 100 μg/mL hygromycin, and 400 μg/mL G418 to afford a stably transfected amylin receptor/CRE-luc cell line. The lyophilized powder from Example 1 was dissolved in 20 mM phosphate buffer solution with a pH of 7.0, and diluted in a growth medium (F12 culture medium containing 10% FBS) to give a derivative sample with an initial concentration of 10 nM, which was then subjected to a 5-fold serial dilution in the growth medium to obtain seven samples with concentrations between […]. In each well of a white 96-well plate, 50 μL of the tested sample solution was added with a corresponding concentration. The stably transfected amylin receptor/CRE-luc CHO cells were resuspended in the growth medium at a certain density, and 50 μL of the cell suspension was added at a density of about 20000 cells per well to the white 96-well plate containing the tested sample solution. After incubation of 24 hours at 37° C. and 5% CO2, 100 μL of a Luciferase substrate was added to each well, incubated for 3 minutes, and finally was tested for luminescence on SpectraMax L (Molecular Devices) with the software SoftMax Pro 7.0.3 GxP.

Structure (SMILES) | Relative activity [%] | EC50 [nM]
CC[C@H](C)[C@H](NC(=O)[C@@H]1CCCN1C(=O)[C@H](CCCCN)NC(=O)[C@H](CC(C)C)NC(=O)[C@H](CC(N)=O)NC(=O)[C@H](CC(N)=O)NC(=O)[C@H](CO)NC(=O)[C@H](CO)NC(=O)[C@H](Cc1c[nH]cn1)NC(=O)[C@H](CCCNC(=N)N)NC(=O)[C@H](CC(C)C)NC(=O)[C@H](Cc1ccccc1)NC(=O)[C@H](CC(=O)O)NC(=O)[C@H](C)NC(=O)[C@H](CC(C)C)NC(=O)[C@H](CCCNC(=N)N)NC(=O)[C@H](CCC(N)=O)NC(=O)[C@@H](NC(=O)[C@H](C)NC(=O)[C@H](C)NC(=O)[C@@H](NC(=O)[C@H](CO)NC(=O)[C@H](CC(C)C)NC(=O)[C@H](CCC(N)=O)NC(=O)[C@H](CO)NC(=O)[C@H](C)NC(=O)[C@H](CC(=O)O)NC(=O)CCCCCCCCCCCCCCCCCCC(=O)O)[C@@H](C)O)[C@@H](C)O)C(=O)N[C@@H](CC(C)C)C(=O)N1CCC[C@H]1C(=O)N1CCC[C@H]1C(=O)N[C@H](C(=O)N[C@@H](CC(N)=O)C(=O)N[C@H](C(=O)NCC(=O)N[C@@H](CO)C(=O)N[C@@H](CC(N)=O)C(=O)N[C@H](C(=O)N1C[C@H](O)C[C@H]1C(N)=O)[C@@H](C)O)C(C)C)[C@@H](C)O [M28] ({C20 diacid}-DASQLSTAATQRLADFLRHSSNNLKPILPPTNVGSNT[Hyp]-NH2) | 128 | 0.039
CC[C@H](C)[C@H](NC(=O)[C@@H]1CCCN1C(=O)[C@H](CCCCN)NC(=O)[C@H](CC(C)C)NC(=O)[C@H](CC(N)=O)NC(=O)[C@H](CC(N)=O)NC(=O)[C@H](CO)NC(=O)[C@H](CO)NC(=O)[C@H](Cc1c[nH]cn1)NC(=O)[C@H](CCCNC(=N)N)NC(=O)[C@H](CC(C)C)NC(=O)[C@H](Cc1ccccc1)NC(=O)[C@H](CC(=O)O)NC(=O)[C@H](C)NC(=O)[C@H](CC(C)C)NC(=O)[C@H](CCCNC(=N)N)NC(=O)[C@H](CCC(N)=O)NC(=O)[C@@H](NC(=O)[C@H](C)NC(=O)[C@H](C)NC(=O)[C@@H](NC(=O)[C@H](CO)NC(=O)[C@H](CC(C)C)NC(=O)[C@H](CCC(N)=O)NC(=O)[C@H](CO)NC(=O)[C@H](C)NC(=O)C[C@H](NC(=O)CCCCCCCCCCCCCCCCCCC(=O)O)C(=O)O)[C@@H](C)O)[C@@H](C)O)C(=O)N[C@@H](CC(C)C)C(=O)N1CCC[C@H]1C(=O)N1CCC[C@H]1C(=O)N[C@H](C(=O)N[C@@H](CC(N)=O)C(=O)N[C@H](C(=O)NCC(=O)N[C@@H](CO)C(=O)N[C@@H](CC(N)=O)C(=O)N[C@H](C(=O)N1C[C@H](O)C[C@H]1C(N)=O)[C@@H](C)O)C(C)C)[C@@H](C)O [M27] ({C20 diacid-βAsp}-ASQLSTAATQRLADFLRHSSNNLKPILPPTNVGSNT[Hyp]-NH2) | 78 | 0.064
CC[C@H](C)[C@H](NC(=O)[C@H](CC(=O)O)NC(=O)[C@H](CCCNC(=N)N)NC(=O)[C@H](CC(=O)O)NC(=O)[C@H](CCCNC(=N)N)NC(=O)[C@H](CC(=O)O)NC(=O)[C@@H](NC(=O)[C@H](Cc1ccccc1)NC(=O)[C@H](Cc1c[nH]cn1)NC(=O)[C@H](CCCNC(=N)N)NC(=O)[C@H](CC(C)C)NC(=O)[C@H](Cc1ccccc1)NC(=O)[C@H](CC(=O)O)NC(=O)[C@H](C)NC(=O)[C@H](CC(C)C)NC(=O)[C@H](CCCNC(=N)N)NC(=O)[C@H](CCC(N)=O)NC(=O)[C@@H](NC(=O)[C@H](C)NC(=O)[C@H](C)NC(=O)[C@@H](NC(=O)[C@H](CO)NC(=O)[C@H](CC(C)C)NC(=O)[C@H](CCC(N)=O)NC(=O)[C@H](CO)NC(=O)[C@H](C)NC(=O)CC[C@H](NC(=O)CCCCCCCCCCCCCCCCC(=O)O)C(=O)O)[C@@H](C)O)[C@@H](C)O)[C@@H](C)O)C(=O)N[C@@H](CC(C)C)C(=O)N1CCC[C@H]1C(=O)N1CCC[C@H]1C(=O)N[C@H](C(=O)N[C@@H](CC(N)=O)C(=O)N[C@H](C(=O)NCC(=O)N[C@@H](CO)C(=O)N[C@@H](CC(N)=O)C(=O)N[C@H](C(=O)N1CCC[C@H]1C(N)=O)[C@@H](C)O)C(C)C)[C@@H](C)O [M22] ({C18 diacid-γGlu}-ASQLSTAATQRLADFLRHFTDRDRDILPPTNVGSNTP-NH2) | 198 | 0.016

Now from value to compound:

Relative activity [%] | EC50 [nM] | Structure (SMILES)
 | 0.039 | CC[C@H](C)[C@H](NC(=O)[C@@H]1CCCN1C(=O)[C@H](CCCCN)NC(=O)[C@H](CC(C)C)NC(=O)[C@H](CC(N)=O)NC(=O)[C@H](CC(N)=O)NC(=O)[C@H](CO)NC(=O)[C@H](CO)NC(=O)[C@H](Cc1c[nH]cn1)NC(=O)[C@H](CCCNC(=N)N)NC(=O)[C@H](CC(C)C)NC(=O)[C@H](Cc1ccccc1)NC(=O)[C@H](CC(=O)O)NC(=O)[C@H](C)NC(=O)[C@H](CC(C)C)NC(=O)[C@H](CCCNC(=N)N)NC(=O)[C@H](CCC(N)=O)NC(=O)[C@@H](NC(=O)[C@H](C)NC(=O)[C@H](C)NC(=O)[C@@H](NC(=O)[C@H](CO)NC(=O)[C@H](CC(C)C)NC(=O)[C@H](CCC(N)=O)NC(=O)[C@H](CO)NC(=O)[C@H](C)NC(=O)C1CCN(C(=O)CCCCCCCCCCCCCCCCCCC(=O)O)CC1)[C@@H](C)O)[C@@H](C)O)C(=O)N[C@@H](CC(C)C)C(=O)N1CCC[C@H]1C(=O)N1CCC[C@H]1C(=O)N[C@H](C(=O)N[C@@H](CC(N)=O)C(=O)N[C@H](C(=O)NCC(=O)N[C@@H](CO)C(=O)N[C@@H](CC(N)=O)C(=O)N[C@H](C(=O)N1C[C@H](O)C[C@H]1C(N)=O)[C@@H](C)O)C(C)C)[C@@H](C)O [M30] ({C20 diacid-Inp}-ASQLSTAATQRLADFLRHSSNNLKPILPPTNVGSNT[Hyp]-NH2)
30 | 0.168 | CC[C@H](C)[C@H](NC(=O)[C@@H]1CCCN1C(=O)[C@H](CCCCN)NC(=O)[C@H](CC(C)C)NC(=O)[C@H](CC(N)=O)NC(=O)[C@H](CC(N)=O)NC(=O)[C@H](CO)NC(=O)[C@H](CO)NC(=O)[C@H](Cc1c[nH]cn1)NC(=O)[C@H](CCCNC(=N)N)NC(=O)[C@H](CC(C)C)NC(=O)[C@H](Cc1ccccc1)NC(=O)[C@H](CC(=O)O)NC(=O)[C@H](C)NC(=O)[C@H](CC(C)C)NC(=O)[C@H](CCCNC(=N)N)NC(=O)[C@H](CCC(N)=O)NC(=O)[C@@H](NC(=O)[C@H](C)NC(=O)[C@H](C)NC(=O)[C@@H](NC(=O)[C@H](CO)NC(=O)[C@H](CC(C)C)NC(=O)[C@H](CCC(N)=O)NC(=O)[C@H](CO)NC(=O)[C@H](C)NC(=O)COCCOCCNC(=O)COCCOCCNC(=O)CC[C@H](NC(=O)CCCCCCCCCCCCCCCCCCC(=O)O)C(=O)O)[C@@H](C)O)[C@@H](C)O)C(=O)N[C@@H](CC(C)C)C(=O)N1CCC[C@H]1C(=O)N1CCC[C@H]1C(=O)N[C@H](C(=O)N[C@@H](CC(N)=O)C(=O)N[C@H](C(=O)NCC(=O)N[C@@H](CO)C(=O)N[C@@H](CC(N)=O)C(=O)N[C@H](C(=O)N1C[C@H](O)C[C@H]1C(N)=O)[C@@H](C)O)C(C)C)[C@@H](C)O [M31] ({C20 diacid-γGlu-AEEA-AEEA}-ASQLSTAATQRLADFLRHSSNNLKPILPPTNVGSNT[Hyp]-NH2)
